Measurements from patent publication US9763996B2, “Polymyxin derivative and uses thereof” (Northern Antibiotics Ltd., priority 2015, dated 2017).
Values after ≈ are worked out from the molar mass of the structure shown. “Also recorded” adds a separate entry of the source. Read-outs that look alike come from different tables or passages of the source. Where a SMILES comes first, the peptide text is derived from it. Bridges are numbered along the chain shown (N, C = ends). [ ]: non-standard residue; d: D form. The star is where a group is joined. Octanoyl = CCCCCCCC(=O)*; Dab = NCC[C@H](N)C(=O)O

What was measured:
[1] = 7-day IV infusion toxicity (nephrotoxicity) study in cynomolgus monkeys
Procedure: In vivo toxicity and toxicokinetic studies were performed by using cynomolgus monkeys. The laboratory that performed the animal studies is accredited by the Association for Assessment and Accreditation of Laboratory Animal Care (AAALAC), has an Animal Welfare Assurance issued by the Office of Laboratory Animal Welfare (OLAW), is registered with the United States Department of Agriculture (USDA), and has an Institutional Animal Care and Use Committee (IACUC) responsible for compliance with applicable laws and regulations concerning the humane care and use of laboratory animals.
Naïve female cynomolgus monkeys were acclimatized to study room for 28 days during which each animal was implanted with a permanent indwelling femoral catheter to permit continuous intravenous infusions. The animals were allowed surgical recovery period of at least 2 weeks before initiating dosing.
Polymyxin B sulfate was from Sigma-Aldrich (catalogue number P0972, lot number BCBF8382V). On each day of use, appropriate quantities of NAB739, NAB815 or polymyxin B were weighed and dissolved in appropriate volumes of sterile saline to prepare a stock solution for each test article and positive control. A correction factor was used in the stock solution preparation to account for both the purity and sulfate content in each test article. Accordingly, the dose (such as 36 mg/kg/d) refers to the dose of the pure peptide as its free base form, not as its sulfate salt.
The doses were the following: polymyxin B 18 mg/kg/d (Group 1), polymyxin B 24 mg/kg/d (Group 2), NAB739 24 mg/kg/d (Group 3), NAB739 36 mg/kg/d (Group 4), NAB815 24 mg/kg/d (Group 5), NAB815 36 mg/kg/d (Group 6). Three animals were included in each study groups.
(§1) For seven days, the animals were dosed by intravenous (IV) infusion three times daily (TID) at a dose volume of 10 mL/kg for 1 hour (±10 minutes), 8±0.5 hours apart. The day of initial dose administration was designated study Day 1, with subsequent days consecutively numbered. Days prior to the initial dose administration were consecutively numbered with the final day of acclimation referenced as Day −1.
(§2) The following parameters were evaluated at designed intervals: clinical observations, body weights, clinical pathology (hematology, coagulation, serum chemistry, urinalysis including urine sediments and urine chemistry), toxicokinetics (plasma and urine) and anatomic pathology (kidney). In cases of animals sacrificed on an unscheduled basis, samples were taken on the day of the sacrifice.
On the day of necropsy, animals were sedated with ketamine, weighed, and anesthetized with an intravenous injection of a commercial pentobarbital and phenytoin solution, followed by exsanguinations.
At necropsy, gross observations and organ weights were recorded, and specific tissues were collected. Histopathology was conducted on sections of kidney stained with hematoxylin and eosin (H&E).
The figures also show Urine N-acetyl-β-D-glucosaminidase/urine creatinine ratio (U-NAG/Crea; FIG. 3) and Urine Gamma Glutamyltransferase/urine creatinine ratio (U-GGT/Crea; FIG. 4), both urine biomarkers for kidney injury, in those animals. S-Crea and U-Crea were measured by using an Olympus Analyzer (OA) and the modified Jaffe method, S-BUN by using OA and urease/L-glutamate dehydrogenase. U-NAG was measured by using OA/enzymatic, and U-GGT by using OA and glutamyl-carboxy-p-nitroanilide IFCC.
The presence of the following nephro-pathological parameters was recorded in each animal: tubular basophilia (re-generation), tubular degeneration/necrosis, infiltration (by mononuclear and/or mixed inflammatory cells), tubular dilatation, and tubular casts.

P. aeruginosa = test: Synergy studies with rifampin; type: cell-based, Pseudomonas aeruginosa; conditions: against P. aeruginosa
Procedure: Synergy studies were performed by using polymyxin derivatives in combination with rifampin, a model compound for such antibacterial agents that the intact outer membrane of Gram-negative bacteria acts as a permeability barrier.

A. baumannii CMI 417 [2] = conditions: alone; A. baumannii CMI 417 (polymyxin-nonsusceptible)
K. pneumoniae ATCC 43816 [3] = conditions: ATCC 43816
[4] = Toxicokinetics (plasma and urine) in cynomolgus monkeys; conditions: cynomolgus monkey, in vivo; for AUC: plasma
Procedure: as §1, §2
Plasma and urine concentrations for toxicokinetic (TK) studies were determined by using liquid chromatograph interfaced with a mass spectrometer after precipitation of proteins. A sample (100 μL) was mixed with internal standard solution in water:formic acid (99:1 v/v; […]). Then, 600 μL of 100:1 acetonitrile:formic acid was added. The plates were centrifuged at 3200 rpm for 5 minutes. Using a Tomtec Quadra96, a 450 μL aliquot was transferred to a new 96-well plate and dried under nitrogen at 40° C. Then, 200 μL of water:methanol:formic acid (85:15:1 1 v/v) was added and the plate sealed for LC-MS/MS injection. LC-MS system consisted of Waters Acquity liquid chromatograph interfaced with a Thermo Scientific TSQ Quantitative triple quadrupole MS with ionization in the positive ion mode. Each sample (20 μL) was injected onto a Waters Acquity BEH Shield RP18 column (2.1×50 mm; 1.7 μm) equilibrated at 50° C. Mobile Phase A was 85:15:1 v/v water:methanol:formic acid. Mobile Phase B was 50:50:1 v/v acetonitrile:methanol:formic acid.
Peak area ratios from the calibration standard responses were regressed using a (1/concentration^2) linear fit for polymyxin B using colistin as the internal standard. For NAB739 and NAB815, peak areas from the calibration standard responses were regressed using a (1/concentration^2) quadratic fit (without the use of an internal standard).
The regression models were chosen based upon the behavior of the analytes across the concentration range used during development.
Toxicokinetic analysis was performed by using WinNonlin Phoenix version 6.3 software (Pharsight, Cary, N.C.). For plasma TK, noncompartmental IV infusion model was used.
In the cynomolgus monkey studies described in Example 3, where the peptides were administered as a 1-hour intravenous infusion three times daily, plasma and urine levels of the peptides were determined.

E. coli JMI 109 [5] = conditions: JMI 109
K. pneumoniae JMI 27072 [6] = conditions: JMI 27072
E. coli ATCC 25922 [7] = conditions: ATCC 25922
A. baumannii ATCC 19606 [8] = conditions: ATCC 19606
E. coli JMI 3328 [9] = conditions: JMI 3328
P. aeruginosa JMI 7445 [10] = conditions: JMI 7445
P. aeruginosa JMI 7445 [11] = test: microbe, parasite or virus in culture; conditions: Pseudomonas aeruginosa, JMI7445
P. aeruginosa ATCC 27853 = test: MIC assay (CLSI broth microdilution; checkerboard with rifampin); conditions: Pseudomonas aeruginosa, ATCC27853
A. baumannii JMI 48125 = test: microbe, parasite or virus in culture; conditions: Acinetobacter baumannii, JMI48125
E. coli ATCC 25922 [12] = test: microbe, parasite or virus in culture; conditions: Escherichia coli, ATCC25922
K. pneumoniae ATCC 43816 [13] = test: microbe, parasite or virus in culture; conditions: Klebsiella pneumoniae, ATCC43816
K. pneumoniae JMI 27068 = test: microbe, parasite or virus in culture; conditions: Klebsiella pneumoniae, JMI27068
E. coli JMI 3328 [14] = test: microbe, parasite or virus in culture; conditions: Escherichia coli, JMI3328
E. coli JMI 109 [15] = test: microbe, parasite or virus in culture; conditions: Escherichia coli, JMI109
A. baumannii ATCC 19606 [16] = test: microbe, parasite or virus in culture; conditions: Acinetobacter baumannii, ATCC19606
A. baumannii CMI 417 [17] = test: microbe, parasite or virus in culture; conditions: Acinetobacter baumannii, CMI417
K. pneumoniae JMI 27072 [18] = test: microbe, parasite or virus in culture; conditions: Klebsiella pneumoniae, JMI27072

SMILES: CCCCCCCC(=O)N[C@H](C(=O)N[C@H](CO)C(=O)N[C@H]1CCNC(=O)[C@H]([C@@H](C)O)NC(=O)[C@H](CCN)NC(=O)[C@H](CCN)NC(=O)[C@H](CC(C)C)NC(=O)[C@@H](Cc2ccccc2)NC(=O)[C@H](CCN)NC1=O)[C@@H](C)O [NAB739, octanoyl-Thr-DSer-[cyclo-α,γDab-αDab-DPhe-Leu-αDab-αDab-Thr]] (Octanoyl-T[dS][Dab][Dab][dF]L[Dab][Dab]T; lactam 3-C)
- kidney injury markers (S-BUN, S-Crea, U-NAG/Crea, U-GGT/Crea) ([1]; 36 mg/kg/d IV TID 7 days): all the four markers were significantly elevated; also recorded: both urine biomarkers were remarkably elevated
- unscheduled necropsy / euthanized due to severe nephrotoxic effects ([1]; 36 mg/kg/d IV TID 7 days, 3 animals per group): One animal receiving NAB739 at 36 mg/kg/d had to be euthanized; also recorded: on Day 5 for one animal in the NAB739 group
- kidney histopathology findings (grade of nephro-pathological parameters) ([1]; 36 mg/kg/d IV TID, H&E kidney sections, per animal(s)): marked tubular degeneration/necrosis; also recorded: marked presence of tubular casts; also recorded: moderate findings, both in two parameters
- synergistic activity with rifampin (P. aeruginosa): lacked any notable synergistic activity with rifampin
- MIC (A. baumannii CMI 417 [2]): 128 µg/mL (≈ 119 µM)
- MIC (K. pneumoniae ATCC 43816 [3]): 4 µg/mL (≈ 3.72 µM)
- AUC ([4]; 36 mg/kg/day, AUCs, dosed at 36 mg/kg/d, day 1): 239 µg·h/mL
- AUC ([4]; iv, 8 mg/kg, AUCs 0-8 h, after infusion of 8 mg/kg, day 1): 108 µg·h/mL
- AUC ([4]; iv, 8 mg/kg, AUCs 0-8 h, after infusion of 8 mg/kg, day 7): 137 µg·h/mL
- AUC ([4]; iv, 36 mg/kg/day, AUCs, dosed at 36 mg/kg/d, day 7): 302 µg·h/mL
- dose excreted ([4]; female, iv, 36 mg/kg/d, urinary recoveries (0-8 h urine collection), 36 mg/kg/d, day 1, each animal): 15.4%
- MIC (E. coli JMI 109 [5]): 32 µg/mL (≈ 29.7 µM)
- MIC (K. pneumoniae JMI 27072 [6]): 2 to 4 µg/mL
- MIC (E. coli ATCC 25922 [7]): 2 µg/mL (≈ 1.86 µM)
- MIC (A. baumannii ATCC 19606 [8]): 4 µg/mL (≈ 3.72 µM)
- MIC (E. coli JMI 3328 [9]): 2 µg/mL (≈ 1.86 µM)
- MIC (P. aeruginosa JMI 7445 [10]): 4 µg/mL (≈ 3.72 µM)

SMILES: CO[C@H]1/C=C/O[C@@]2(C)Oc3c(C)c(O)c4c(O)c(c(/C=N/N5CCN(C)CC5)c(O)c4c3C2=O)NC(=O)/C(C)=C\C=C\[C@H](C)[C@H](O)[C@@H](C)[C@@H](O)[C@@H](C)[C@H](OC(C)=O)[C@@H]1C [rifampin]
- MIC (P. aeruginosa JMI 7445 [11]): 32 µg/mL (≈ 38.9 µM)
- MIC (P. aeruginosa ATCC 27853): 32 µg/mL
- MIC (A. baumannii JMI 48125): 4 µg/mL (≈ 4.86 µM)
- MIC (E. coli ATCC 25922 [12]): 8 µg/mL (≈ 9.72 µM)
- MIC (K. pneumoniae ATCC 43816 [13]): 16 µg/mL (≈ 19.4 µM)
- MIC (K. pneumoniae JMI 27068): 64 µg/mL (≈ 77.8 µM)
- MIC (E. coli JMI 3328 [14]): 8 µg/mL (≈ 9.72 µM)
- MIC (E. coli JMI 109 [15]): 16 µg/mL (≈ 19.4 µM)
- MIC (A. baumannii ATCC 19606 [16]): 4 µg/mL (≈ 4.86 µM)
- MIC (A. baumannii CMI 417 [17]): 4 µg/mL (≈ 4.86 µM)
- MIC (K. pneumoniae JMI 27072 [18]): 8 µg/mL (≈ 9.72 µM)
